Assay results from patent publication US9402925B2, “Probes and methods of imaging a bacterial infection” (The Board of Trustees of the Leland Stanford Junior …, priority 2013, dated 2016).
“Also recorded” adds a separate entry of the source. Where two headings read alike, the source gives them in different places.

Tests used:
Escherichia coli = experiment: Competition assay: blocking of 3H-maltose uptake by E. coli; format: cell-based; conditions: co-incubation, 1 mM; 3H-labeled maltose uptake for 10 mins; FIG. 2.4
Procedure: Coli and a mammalian cell line (EL4) were exposed to [^18F] 7. […] 7 by E. […] The uptake in E. Coli could also be blocked by co-incubation with 1 mM of cold maltose (98% blocking, p<0.0003), the natural substrate of the transporter. […] Here we allowed bacteria to take up ^3H-labeled maltose for 10 mins.

E-.Coli (ATCC33456) [1] = experiment: Competition assay: blocking of 18F-fluoromaltose uptake in E. coli by co-incubation; format: cell-based, Escherichia coli; conditions: co-incubation with 1 mM
Procedure: (§1) A strain of E-.Coli (ATCC33456) and a mammalian cell line (EL4) were exposed to 1-[^18F]-fluoromaltose or [^18F]-6-fluoromaltose. All bacteria and cells were then washed in 1×PBS, lysed and radioactivity of each well was determined by gamma counter for ^18F samples. All results were done in triplicate and are expressed in counts per minute (CPM), standard errors were determined and t tests performed. The uptake in E. Coli could also be blocked by co-incubation with 1 mM of cold maltose or 1 mM of 1-fluoromaltose.
(§2) To evaluate the ability of bacteria and cells to uptake [^18F]-6-fluoromaltose (7) and 1-[^18F]-fluoromaltose (11), a strain of E. Coli and a mammalian cell line (EL4) were exposed to 7 and 11. […] The uptake in E. Coli could also be blocked by co-incubation with 1 mM of cold maltose (98% blocking, p<0.0003), the natural substrate of the transporter. Likewise, ^3H-maltose uptake in E. Coli was blocked both with 1 mM maltose and 1-fluoromaltose (FIG. 2.4).

[2] = PBS, human and mouse serum at 37° C.
Procedure: Serum (human or mouse) was centrifuged at about 4° C., maximum speed for about 10 min. About 330 μL of supernatant was transferred to an Eppendorf vial containing 20 μL of formulated radiolabelled 6-[^18F]fluoromaltose (50-100 μCi minimum). For control, same volume of radiolabelled compound in 330 μl PBS was used. After vortexing the radiolabelled mixtures, 70 μL aliquots transferred to Eppendorf tubes and incubated at about 37° C. At predetermine time points (e.g., 0, 5, 15, 30, 60 min) 140 μL of ice-cold methanol were added to corresponding samples to stop metabolism. After vortexing and centrifuging samples (10 min max speed), the supernatants were transferred to HPLC vials for HPLC analysis.
The percentage of intact 6-[^18F]fluoromaltose in PBS, human and mouse serum at 37° C. was determined by HPLC.

E-.Coli (ATCC33456) [3] = experiment: In vitro uptake assay in E. coli; format: cell-based, Escherichia coli; conditions: radioactivity by gamma counter, CPM, FIG. 2.3
Procedure: as §1, §2

[4] = system: mammalian cell line (EL4); experiment: In vitro uptake assay in mammalian cell line EL4; format: cell-based; conditions: 60 minutes post incubation with tracer
Procedure: as §1, §2

[5] = In vivo stability of 1-[18F]fluoromaltose

OC[C@H]1O[C@H](O[C@H]2[C@H](O)[C@@H](O)C(F)O[C@@H]2CO)[C@H](O)[C@@H](O)[C@@H]1O (stereo partly drawn) [1-fluoromaltose]
blocking of 3H-maltose uptake in E. Coli (Escherichia coli): completely blocked; also recorded: effectively compete
blocking of 18F-fluoromaltose uptake in E. Coli (E-.Coli (ATCC33456) [1]): blocked

OC[C@H]1O[C@H](O[C@H]2[C@H](O)[C@@H](O)C(O)O[C@@H]2C[18F])[C@H](O)[C@@H](O)[C@@H]1O (stereo partly drawn) [6-[^18F]-fluoromaltose, 4-O-(α-D-glucopyranosyl)-6-deoxy-6-[^18F]-fluoro-D-glucopyranoside]
percentage intact 6-[18F]fluoromaltose ([2]; 1 h): ~96%
percentage intact 6-[18F]fluoromaltose ([2]; 2 h): ~65%
uptake by E. Coli (E-.Coli (ATCC33456) [3]): take up
uptake by E. Coli (E-.Coli (ATCC33456) [3]; listed as [^18F]-6-fluoromaltose): time dependent
uptake by mammalian cell line (EL4) [4]: minimal

OC[C@H]1O[C@H](O[C@H]2[C@H](O)[C@@H](O)C([18F])O[C@@H]2CO)[C@H](O)[C@@H](O)[C@@H]1O (stereo partly drawn) [1-[^18F]-fluoromaltose, 4-O-(α-D-glucopyranosyl)-1-deoxy-1-[^18F]-fluoro-D-glucopyranoside]
stability in vivo (de-fluorination) [5]: not stable in vivo and very fast de-fluorinated
uptake of [18F]fluoride ion by the bones ([5]; after de-fluorination): very high

OC[C@H]1O[C@H](O[C@H]2[C@H](O)[C@@H](O)C(O)O[C@@H]2CO)[C@H](O)[C@@H](O)[C@@H]1O (mixture of isomers) [maltose]
blocking of 3H-maltose uptake in E. Coli (Escherichia coli): completely blocked; also recorded: effectively compete
blocking of 18F-fluoromaltose uptake in E. Coli (E-.Coli (ATCC33456) [1]): completely blocked
blocking of [18F]-6-fluoromaltose uptake in E. Coli (E-.Coli (ATCC33456) [1]; p<0.0003): 98%
